Experimental data taken from ChEMBL document CHEMBL1201862, “PubChem BioAssay data set” (2004).
Where a name gives a salt, the structure may show the parent alone.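 Where inhibition never reached the appropriate level, the endpoint shown equals the highest concentration tested. Otherwise, values were interpolated linearly from a five-concentration, 48-hour dose response in 96-well plates. The concentration for 50% growth inhibition is given as GI50.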 Activity calls are given as the source filed them. Cut-off read from the data, not from the text of the source: active = GI50 up to about 1.1 µM and inactive = higher.

What was measured:
Test in all cases: DTP human tumour cell line panel, 48 h
[1] = system: OVCAR-8
[2] = system: 786-0
[3] = system: SW-620
[4] = system: NCI-H522
[5] = system: OVCAR-4
[6] = system: SK-OV-3
[7] = system: NCI-H226
[8] = system: OVCAR-3
[9] = system: ACHN
[10] = system: A498
[11] = system: K562
[12] = system: SF-268
[13] = system: HT-29
[14] = system: OVCAR-5
[15] = system: IGROV-1
[16] = system: SK-MEL-5
[17] = system: HOP-92
[18] = system: NCI/ADR-RES
[19] = system: MCF7
[20] = system: Hs-578T

Structure (SMILES)	GI50 [1]	GI50 [2]	GI50 [3]	GI50 [4]	GI50 [5]	GI50 [6]	GI50 [7]	GI50 [8]	GI50 [9]	GI50 [10]	GI50 [11]	GI50 [12]	GI50 [13]	GI50 [14]	GI50 [15]	GI50 [16]	GI50 [17]	GI50 [18]	GI50 [19]	GI50 [20]
COC(=O)C1=CO[C@@H](C)[C@@H]2Cn3ccc4c5ccccc5nc-4c3C[C@H]12 [ALSTONINE HYDROCHLORIDE]	> 100 µM (inactive)	> 100 µM (inactive)	> 100 µM (inactive)	51.6 µM (inactive)	> 100 µM (inactive)	> 100 µM (inactive)	> 100 µM (inactive)	87.1 µM (inactive)	> 100 µM (inactive)	> 100 µM (inactive)	55.2 µM (inactive)	> 100 µM (inactive)	> 100 µM (inactive)	> 100 µM (inactive)	> 100 µM (inactive)	61.2 µM (inactive)	92.9 µM (inactive)			
COc1cc2c(oc(=O)c3c4oc([Si](C)(C)C)cc4cc(OC)c23)c2cccc(O)c12	> 100 µM (inactive)	> 100 µM (inactive)	> 100 µM (inactive)	> 100 µM (inactive)	> 100 µM (inactive)	> 100 µM (inactive)	> 100 µM (inactive)	> 100 µM (inactive)	> 100 µM (inactive)	> 100 µM (inactive)	> 100 µM (inactive)	> 100 µM (inactive)	> 100 µM (inactive)	> 100 µM (inactive)	> 100 µM (inactive)	> 100 µM (inactive)	> 100 µM (inactive)			
O=C(Nc1ccccc1[N+](=O)[O-])/C(=N/Nc1cccc(Cl)c1)c1c(O)c2ccccc2oc1=O		> 100 µM (inactive)	40.9 µM (inactive)	30.5 µM (inactive)	> 100 µM (inactive)	> 100 µM (inactive)	> 100 µM (inactive)	35.4 µM (inactive)	> 100 µM (inactive)	> 100 µM (inactive)	25.2 µM (inactive)	28.9 µM (inactive)	> 100 µM (inactive)	> 100 µM (inactive)	89.3 µM (inactive)	49.4 µM (inactive)	23.6 µM (inactive)			
COC(=O)C1=CN(C2CCCCC2)C2(c3ccccc3)c3ccccc3C(=O)OC(=O)C12 (stereo not drawn)	> 100 µM (inactive)	> 100 µM (inactive)	> 100 µM (inactive)	> 100 µM (inactive)	> 100 µM (inactive)	> 100 µM (inactive)	> 100 µM (inactive)	> 100 µM (inactive)	> 100 µM (inactive)	> 100 µM (inactive)	20.1 µM (inactive)	> 100 µM (inactive)	62.2 µM (inactive)	> 100 µM (inactive)	> 100 µM (inactive)	> 100 µM (inactive)	39 µM (inactive)	> 100 µM (inactive)	> 100 µM (inactive)	
N#Cc1nc(-c2ccsc2)oc1N	> 100 µM (inactive)	> 100 µM (inactive)	> 100 µM (inactive)			> 100 µM (inactive)			> 100 µM (inactive)	> 100 µM (inactive)	> 100 µM (inactive)	> 100 µM (inactive)	> 100 µM (inactive)	> 100 µM (inactive)	71.8 µM (inactive)	> 100 µM (inactive)	> 100 µM (inactive)		> 100 µM (inactive)	> 100 µM (inactive)
CC(NNC(=O)c1ccc[n+]([BH2-]C#N)c1)c1ccccc1 (stereo not drawn)	> 100 µM (inactive)	> 100 µM (inactive)	> 100 µM (inactive)	> 100 µM (inactive)	> 100 µM (inactive)		> 100 µM (inactive)	> 100 µM (inactive)	> 100 µM (inactive)		> 100 µM (inactive)	> 100 µM (inactive)	> 100 µM (inactive)	> 100 µM (inactive)	> 100 µM (inactive)	> 100 µM (inactive)	> 100 µM (inactive)	> 100 µM (inactive)	> 100 µM (inactive)	
O=c1[nH]c(C2CCCCC2)nc2c(Cl)cccc12	> 100 µM (inactive)	> 100 µM (inactive)	> 100 µM (inactive)	> 100 µM (inactive)	> 100 µM (inactive)	> 100 µM (inactive)	> 100 µM (inactive)	> 100 µM (inactive)	> 100 µM (inactive)	> 100 µM (inactive)	> 100 µM (inactive)	> 100 µM (inactive)	> 100 µM (inactive)	> 100 µM (inactive)	> 100 µM (inactive)	> 100 µM (inactive)	> 100 µM (inactive)			
O=C(Cc1c(C(=O)Nc2ccccc2)sc(C(=O)Nc2ccccc2)c1CC(=O)Nc1ccccc1)Nc1ccccc1	> 100 µM (inactive)	> 100 µM (inactive)	> 100 µM (inactive)	> 100 µM (inactive)	> 100 µM (inactive)	> 100 µM (inactive)	> 100 µM (inactive)	> 100 µM (inactive)	> 100 µM (inactive)	> 100 µM (inactive)	> 100 µM (inactive)	0.446 µM (active)	> 100 µM (inactive)	> 100 µM (inactive)	> 100 µM (inactive)	> 100 µM (inactive)	> 100 µM (inactive)			
Nc1nc(NCCO)c(N=O)c(=O)[nH]1	> 100 µM (inactive)	> 100 µM (inactive)	> 100 µM (inactive)	> 100 µM (inactive)	> 100 µM (inactive)	> 100 µM (inactive)	> 100 µM (inactive)	> 100 µM (inactive)	> 100 µM (inactive)	> 100 µM (inactive)	> 100 µM (inactive)	> 100 µM (inactive)	> 100 µM (inactive)	> 100 µM (inactive)	> 100 µM (inactive)	> 100 µM (inactive)	> 100 µM (inactive)			
CCOc1snc(C(Cl)(Cl)Cl)c1Cl	24.4 µM (inactive)	31.7 µM (inactive)	30.3 µM (inactive)		27.1 µM (inactive)	28.6 µM (inactive)	9.33 µM (inactive)	14.1 µM (inactive)	7.85 µM (inactive)	11.7 µM (inactive)	9.33 µM (inactive)	17.7 µM (inactive)	15.5 µM (inactive)	> 100 µM (inactive)	31 µM (inactive)	7.83 µM (inactive)			25 µM (inactive)	18.9 µM (inactive)
O=C1Cc2c([nH]c3ccccc23)-c2cc(Br)ccc2N1	> 100 µM (inactive)	> 100 µM (inactive)	> 100 µM (inactive)	> 100 µM (inactive)	> 100 µM (inactive)	> 100 µM (inactive)	> 100 µM (inactive)	> 100 µM (inactive)	> 100 µM (inactive)	> 100 µM (inactive)	> 100 µM (inactive)	> 100 µM (inactive)	> 100 µM (inactive)	> 100 µM (inactive)	> 100 µM (inactive)	> 100 µM (inactive)	> 100 µM (inactive)			
C=C(C)CCN(C(=O)OC(C)(C)C)c1cc(C(C)C)co1	37.5 µM (inactive)	> 100 µM (inactive)	56 µM (inactive)		59.2 µM (inactive)	> 100 µM (inactive)	57.7 µM (inactive)	40.5 µM (inactive)	73.6 µM (inactive)	> 100 µM (inactive)	34.5 µM (inactive)	0.344 µM (active)	45.3 µM (inactive)	> 100 µM (inactive)	> 100 µM (inactive)	44.3 µM (inactive)	11.4 µM (inactive)	24.2 µM (inactive)	40.4 µM (inactive)	
CC(/C=C/C(=O)c1sc(C(N)=S)nc1C)=C\c1ccccc1	> 100 µM (inactive)	> 100 µM (inactive)		81.8 µM (inactive)	> 100 µM (inactive)	> 100 µM (inactive)	> 100 µM (inactive)	> 100 µM (inactive)	81.8 µM (inactive)	> 100 µM (inactive)	> 100 µM (inactive)	> 100 µM (inactive)	> 100 µM (inactive)	> 100 µM (inactive)	> 100 µM (inactive)	> 100 µM (inactive)	> 100 µM (inactive)			
O=c1[nH]c(=O)n(C2CC(O)C(CO)O2)cc1C(F)(C(F)(F)F)C(F)(F)F (stereo not drawn)	> 100 µM (inactive)	> 100 µM (inactive)	> 100 µM (inactive)	45.2 µM (inactive)	> 100 µM (inactive)	> 100 µM (inactive)	> 100 µM (inactive)	> 100 µM (inactive)	> 100 µM (inactive)	> 100 µM (inactive)	> 100 µM (inactive)	> 100 µM (inactive)	> 100 µM (inactive)	> 100 µM (inactive)	> 100 µM (inactive)	> 100 µM (inactive)	> 100 µM (inactive)			
Cc1c(C)c(C)c(-n2c(=O)n(C)c(=O)n2C(C)(C)C)c(C)c1C		> 100 µM (inactive)	> 100 µM (inactive)		> 100 µM (inactive)	> 100 µM (inactive)		> 100 µM (inactive)	> 100 µM (inactive)	> 100 µM (inactive)	81.1 µM (inactive)	> 100 µM (inactive)		> 100 µM (inactive)		> 100 µM (inactive)	> 100 µM (inactive)		> 100 µM (inactive)	> 100 µM (inactive)
CC(C)CC12CC3CCC(CNC1=O)C32C (stereo not drawn)	> 100 µM (inactive)	> 100 µM (inactive)	> 100 µM (inactive)	> 100 µM (inactive)	> 100 µM (inactive)	> 100 µM (inactive)	> 100 µM (inactive)	> 100 µM (inactive)	> 100 µM (inactive)	> 100 µM (inactive)	43.5 µM (inactive)	> 100 µM (inactive)	72.9 µM (inactive)	96.8 µM (inactive)	> 100 µM (inactive)	> 100 µM (inactive)	> 100 µM (inactive)			
